Assay results as given in paper PMC3836994, “Killer Bee Molecules: Antimicrobial Peptides as Effector Molecules to Target Sporogonic Stages of Plasmodium” (PLoS Pathogens, 2013).

Experiments:
Plasmodium spp. = conditions: An. gambiae infected with a variety of Plasmodium spp., magainin injected into the midgut haemocoel; ref [29]; cited from earlier work
Text: (§1) Supplement ppat.1003790.s001.doc, table 1: Table S1. Peptide sequence, activity and source. | column: Sequence and description

P. falciparum = assay: Field P. falciparum from gametocyte carriers membrane-fed to An. gambiae (Mali); type: in vivo, Plasmodium falciparum; conditions: 50 µM
Text: Nyaganabougou, a village approximately 60 km south-west of the Malian capital, Bamako, was used as a site for the source of donors of malaria-infected blood. Due to its proximity to the river Niger, which provides perennial mosquito breeding sites, Nyaganabougou has high numbers of infected individuals and an extended transmission season. Mosquitoes used to establish the An. gambiae Mali colony used for this study were originally collected in the village of Kenieroba (a distance of 15 km from Nyaganabougou). Potential male and female gametocyte carriers between the ages of 6–10 were screened by thick smear and parasite species and density determined by local staff, led by Saibou Doumbia.
Gametocyte carriers were taken to the Malaria Research and Training Centre at the University of Bamako for blood donation. Approximately 4 ml of blood was extracted from carriers and immediately divided into 3 Hemotek membrane feeders for testing 2 separate AMPs and one control for each carrier. Peptides were added to 950 µl of gametocytaemic blood for a final concentration of 50 µM. All parasite-positive individuals were subsequently treated appropriately for parasites and associated symptoms, as determined by, and carried out by, local health workers in Nyaganabougou.
Approximately 120 adult female An. gambiae (Mali, 4–7 days old) were starved overnight, and allowed to feed on the gametocytaemic blood/AMP mix for 30 min. Engorged females were maintained on 10% glucose with 0.05% PABA for 8 days before dissection. No oviposition sites were provided so that fecundity could be measured by determining retained eggs. Mosquito wing length, numbers of retained eggs and oocysts were recorded, and triplicate peptide experiments were carried out on different mosquito cohorts, using blood from different donors. Where possible, a minimum of 50 mosquitoes were dissected for each condition.

[1] = system: wide spectrum of microorganisms; conditions: x as strong as magainin 2; ref [83]; cited from earlier work
Text: as §1

Sequence	Oocyst development abolished (Plasmodium spp.)	Oocyst prevalence (oocyst positive mosquitoes), peptide (P. falciparum; Replicate 1, blood of gametocyte carriers, progeny of field An. gambiae)	Oocyst intensity (mean number of oocysts per gut, range in parentheses), peptide (P. falciparum; Replicate 1, field parasites and mosquitoes)	Reduction of prevalence (P. falciparum; single preliminary experiment) [%]	Activity relative to magainin 2 [1]
GIGKFLHSAKKFGKAFVGEIMNS [Magainin II, AMP from Xenopus laevis skin, forms pores]	GIGKFLHSAKKFGKAFVGEIMNS. AMP from Xenopus laevis skin. Forms pores and induces cell permeabilisation. An. gambiae infected with a variety of Plasmodium spp. injected with magainin into the midgut haemocoel abolished oocyst development >80%.	–	–	–	–
KGRGKQGGKVRAKAKTRSS [Parasin, Parasin I, Isolated from the skin mucus of wounded catfish]	–	3% (64)	<1 (0–2)	80	KGRGKQGGKVRAKAKTRSS. Isolated from the skin mucus of wounded catfish. Strong activity (12-100x as strong as magainin 2) against a wide spectrum of microorganisms, without any haemolytic activity.
